Assay results: PubChem BioAssay AID2744 (NMMLSC, 2010)
Calls of active or inactive are those of the source.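 How the source made its calls: active means fitted half-maximal concentration for changing reporter fluorescence at or below a set limit; inactive means the rest.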

Target: Citrate synthase, peroxisomal (Saccharomyces cerevisiae (strain ATCC 204508 / S288c)) (UniProt P08679)
Test: CIT2-GFP expression modulators in yeast, dose response, flow cytometry, MLPCN hits (AID 2744)
Conditions: S. cerevisiae CIT2-GFP strain, 3 h; for GFP fluorescence, higher = induction: at 33 µM (top of the series); for EC50: flow cytometry fluorescence

Sequence of Citrate synthase, peroxisomal (Saccharomyces cerevisiae (strain ATCC 204508 / S288c)) (P08679 whole entry, looked up): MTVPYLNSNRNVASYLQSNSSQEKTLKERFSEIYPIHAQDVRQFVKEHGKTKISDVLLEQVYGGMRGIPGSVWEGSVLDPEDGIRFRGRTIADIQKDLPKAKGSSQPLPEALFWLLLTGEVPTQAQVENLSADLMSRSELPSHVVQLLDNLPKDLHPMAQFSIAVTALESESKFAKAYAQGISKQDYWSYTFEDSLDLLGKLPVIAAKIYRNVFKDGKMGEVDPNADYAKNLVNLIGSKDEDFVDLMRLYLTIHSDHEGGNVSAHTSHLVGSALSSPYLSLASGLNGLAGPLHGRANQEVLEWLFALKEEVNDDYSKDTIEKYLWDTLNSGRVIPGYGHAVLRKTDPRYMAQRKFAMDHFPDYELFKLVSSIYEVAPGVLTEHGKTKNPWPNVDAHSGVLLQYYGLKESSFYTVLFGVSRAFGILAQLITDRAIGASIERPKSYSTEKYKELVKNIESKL

| SMILES | GFP fluorescence, higher = induction | EC50 [µM] |
| --- | --- | --- |
| CCOc1ccc(C(C)=O)cc1N1C(=O)C2C3C=CC(O3)C2C1=O (centres undefined) | inactive | – |
| COc1ccccc1[C@@]1(C)ON(c2ccccc2C(F)(F)F)C1=O | inactive | – |
| O=C(COc1ccccc1)NNC(=S)NC(=O)c1ccc(Cl)cc1Cl | inactive | – |
| CC(C)(C)C1C/C(=C/c2ccccn2)C(=O)/C(=C/c2ccccn2)C1 (centres undefined) | inactive | – |
| C[C@@H]1C[C@@H]([C@H](O)CC2CC(=O)NC(=O)C2)C(=O)[C@@H](C)C1 | inactive | – |
| COc1cccc(/C=C/C(=O)c2c(O)cc(C)oc2=O)c1O | inactive | – |
| COc1cccc(/C=N/Nc2ccc([N+](=O)[O-])cn2)c1O | inactive | – |
| Cc1cccc(N=C2NC(=O)/C(=C/C=C/c3ccco3)S2)c1C | inactive | – |
| CCCCc1ccc(NC(=O)CC(C)=O)cc1 | inactive | – |
| O=C(Oc1oc(-c2ccco2)nc1C=Nc1ccccc1)c1ccoc1 | inactive | – |
| CCOC(=O)/C(=C\c1cn(C)c2ccccc12)[N+](=O)[O-] | inactive | – |
| CCc1ccc2c(c1)/C(=C/C(=O)c1cccs1)C(=O)N2 | inactive | – |
| Cc1ccc(/C=N/Nc2ncc(Cl)cc2Cl)s1 | inactive | – |
| CC1(C)C[C@H]2C=C(C=O)[C@]3(C=O)C[C@]3(C)[C@H]2C1 | – | 1.41 |
| Cc1nn(C)c(C)c1N1C(=O)c2cccc3c(Br)ccc(c23)C1=O | inactive | – |
| CC(=O)c1ccc(N2CCN(C(=O)c3ccc(Br)cc3)CC2)c(F)c1 | inactive | – |
| Nc1ccc2ccc3cccc[n+]3c2c1 | inactive | – |
| CC1=NNC(=O)/C1=C\c1cn(-c2ccccc2)nc1-c1ccccc1 | inactive | – |
| Cc1ccc(C)c(/C=C/C(=O)c2ccccc(=O)c2O)c1 | inactive | – |
| Cc1ccc2nc(Cl)c3nnnn3c2c1 | inactive | – |

| SMILES | GFP fluorescence, higher = induction | EC50 [µM] |
| --- | --- | --- |
| COc1cccc2sc(Nc3nc(-c4ccccn4)cs3)nc12 | inactive | – |
| O=C(Cc1ccc(Cl)cc1)NNC(=S)NC(=O)c1cccs1 | inactive | – |
| COc1ccc(-c2cc3nc4n(c(=O)c3s2)CCC4)cc1 | inactive | – |
| CCN(CC)c1ccc2cc(-c3nc(-c4ccc(OC)cc4)cs3)c(=O)oc2c1 | inactive | – |
| COc1cc(C=C2C(=O)c3ccccc3C2=O)cc(OC)c1 | inactive | – |
| Cc1cc(C2CCCCC2)n(O)c(=O)c1 | inactive | – |
| O=c1c2cc(Br)ccc2nc(-c2ccc([N+](=O)[O-])cc2)n1O | inactive | – |
| Cc1cccc(C(=O)NNC(=S)NC(=O)c2ccccc2)c1 | inactive | – |
| O=C1C=C(c2ccc(Cl)cc2)C(=O)N1Nc1ccccc1 | inactive | – |
| O=c1cc(-c2ccccc2)cc(-c2ccccc2)n1O | inactive | – |
| O=[N+]([O-])c1cc(CN2CCN(c3cccc(C(F)(F)F)c3)CC2)c2cccnc2c1O | inactive | – |
| Oc1ccc(CNc2ccccc2)c2cccnc12 | inactive | – |
| Oc1c(Br)cc(Br)cc1C=Nc1ccc2[nH]ncc2c1 | inactive | – |
| C=CCOc1ccc(C(=O)/C=C2/C(=O)Nc3ccccc32)cc1 | inactive | – |
| CCc1nc2ccccc2c(=O)n1NC(=O)c1c(O)c2ccccc2n(CC)c1=O | inactive | – |
| O=C(O)/C=C/C(=O)c1ccc2c(c1)CCc1ccccc1-2 | inactive | – |
| O=C1N(c2ccccc2C(F)(F)F)O[C@@]1(c1ccccc1)C1CCCC1 | inactive | – |
| N/C(=N\OC(=O)c1ccccc1Cl)c1ccc(Cl)cc1 | – | 6.14 |
| N#Cc1c2ccc([N+](=O)[O-])cc2[n+]([O-])n1-c1ccccc1 | inactive | – |
| Cc1ccccc1N=Nc1ccc(O)c2ncccc12 | inactive | – |

| SMILES | GFP fluorescence, higher = induction | EC50 [µM] |
| --- | --- | --- |
| Cc1cc(C)c(S(=O)(=O)ON2C(=O)c3ccccc3C2=O)cc1C | inactive | – |
| Cc1c(N2C(=O)/C(=C\c3ccccc3O)SC2=S)c(=O)n(-c2ccccc2)n1C | inactive | – |
| O=C(Nc1nnc(-c2ccc3c(c2)CCCC3)o1)c1ccc(Cl)cc1Cl | inactive | – |
| Nc1ccccc1SC(C[N+](=O)[O-])c1ccccc1 (centres undefined) | inactive | – |
| Cc1ccc(/C=C2\C(=O)NC(=S)N(c3ccc(F)cc3)C2=O)s1 | inactive | – |
| O=C1C2C3C=CC(CO)(O3)C2C(=O)N1c1ccc(-c2ccccc2)cc1 (centres undefined) | inactive | – |
| Oc1cc(-c2ccc(N3CCCCC3)nc2)cc2cccnc12 | inactive | – |
| CCOC(=O)Cn1cc(/C=C/[N+](=O)[O-])c2ccccc21 | inactive | – |
| O=S(=O)(/N=C(\Sc1ccc(Cl)cc1)c1ccccc1)c1ccccc1 | inactive | – |
| Clc1cnc(N/N=C/c2cccs2)c(Cl)c1 | inactive | – |
| O=C(/C=C/c1ccccc1Cl)c1ccccc(=O)c1O | inactive | – |
| COc1ccc(N2C(=O)C(Cl)=C(Oc3cccc(OC)c3)C2=O)cc1 | inactive | – |
| COc1ccc(N2CCN(C(=O)c3ccc(Br)cc3)CC2)c([N+](=O)[O-])c1 | inactive | – |
| Cc1ccc(C2=NN(S(C)(=O)=O)C(c3ccc4c(c3)OCO4)C2)cc1 (centres undefined) | inactive | – |
| O=C1ON=C(c2ccccc2)/C1=C/c1ccc(-c2ccccc2[N+](=O)[O-])o1 | inactive | – |
| O=C(Oc1ccnc2cc(Cl)ccc12)N1CCOCC1 | inactive | – |
| Oc1c(I)cc(Cl)c2cccnc12 | inactive | – |
| N/C(Cc1ccc(Cl)cc1Cl)=N\OC(=O)c1ccccc1 | inactive | – |
| Cc1ccc(/C(N)=N/OC(=O)c2ccc(F)cc2)cc1 | – | 3.81 |
